Data on 6 compounds can be found in ChEMBL document CHEMBL6114959, “Modeling, synthesis and cell-based evaluation of pyridine-substituted analogs of CD3254 and fluorinated analogs of CBt-PMN as novel therapeutics” (Bioorg Med Chem, 2025).

SMILES strings stand for the structures.

Data set [1] can be described thus: Mutagenicity in Saccharomyces cerevisiae D7 incubated for 3 hrs. The class given is toxicity.
The nature of data set [2]: (§1) Cytotoxicity in Saccharomyces cerevisiae D7 incubated for 3 hrs. The class given is toxicity, organism-based. To be noted: Saccharomyces cerevisiae D7 cells.
In a further data set the test system is Saccharomyces cerevisiae. The description is as §1. The class given is toxicity, organism-based. To be noted: in vivo, 3 h.

As to `Cc1cc2c(cc1-n1c(C(F)(F)F)nc3cc(C(=O)O)ccc31)C(C)(C)CCC2(C)C`, the Activity entry in data set [1] is “Non-toxic”. Further, the CC50 at 3 h in data set [2] turned out to be 193 µM.

Take `Cc1cnc(/C=C/C(=O)O)cc1-c1cc2c(cc1C)C(C)(C)CCC2(C)C`: in data set [1], the Activity result was “Non-toxic”. The same compound gave a CC50 at 3 h in data set [2] of 228 µM.

As for `Cc1cc2c(cc1-c1nc(/C=C/C(=O)O)ccc1C)C(C)(C)CCC2(C)C`, the Activity entry in data set [1] is recorded as “Non-toxic”. The same compound returned a cytotoxic concentration (CC50) at 3 h in data set [2] of 228 µM.

On to `Cc1cc2c(cc1-c1cncc(/C=C/C(=O)O)c1)C(C)(C)CCC2(C)C`, for which, in data set [1], the Activity entry is listed as “Non-toxic”. This compound yielded a CC50 at 3 h in data set [2] of 440 µM.

For `Cc1cc2c(cc1-c1cc(/C=C/C(=O)O)cnc1C)C(C)(C)CCC2(C)C`, the Activity entry in data set [1] is “Non-toxic”. Also, in data set [2], the CC50 at 3 h was 825 µM.

As for `C=C(c1ccc(C(=O)O)cc1)c1cc2c(cc1C)C(C)(C)CCC2(C)C` [BEXAROTENE], the Activity entry (in data set [1]; in the data set with Saccharomyces cerevisiae) was “Non-toxic” throughout.

For orientation: CC50 means the concentration at which the toxic effect on the cells reaches its halfway point. Lower therefore signals greater toxicity to the cells.
